From patent publication US12281149B2, “Modulators of G-protein coupled receptors” (priority 2021, dated 2025) come the findings set out here.

*1 amine or outer side, *2 acyl side, *3 side chain or, on linkers, in order; H or OH if unused. Where a SMILES comes first, the peptide text is derived from it. Side-chain parts run from the residue outwards. [ ]: non-standard residue; d: D form. The star is where a group is joined. Isobutyryl(2-(3-CN-5-F-Ph)) = CC(C)(C(=O)*)c1cc(F)cc(C#N)c1; cPentCO(1-(4-ClPh)) = O=C(C1(c2ccc(Cl)cc2)CCCC1)*; C20 diacid = O=C(O)CCCCCCCCCCCCCCCCCCC(=O)*; X52 = CC(C)(C(=O)*)c1cc(F)cc(OC(F)(F)F)c1; β2hAla(2S) = C[C@@H](CN[*:1])C(=O)[*:2]; γGlu = O=C(O)[C@H](CCC(=O)[*:2])N[*:1]; X70 = CC[C@H](CN[*:1])C(=O)[*:2]; X25 = CC(C)(C(=O)*)n1cc(F)cn1; AEEA = NCCOCCOCC(=O)O; Aib = CC(C)(N)C(=O)O; βAla = NCCC(=O)O

What all share (format): cell-based
The target of assay [1] is T1, GLP-1 receptor (Homo sapiens, UniProt P43220). The experiment in a line: PathHunter β-arrestin assay, GLP-1 receptor. The note with it: β-arrestin-2 recruitment, PathHunter CHO-K1 GLP1R β-Arrestin Cell Line, 90 min at 37° C.; normalized to GLP-1; read-out: GLP-1R β Arrestin EC50. Also on record: host or cells: PathHunter CHO-K1 GLP1R β-Arrestin Cell Line. (In general: Recruitment of arrestin is a read-out of receptor activation apart from second messengers.)

Assay [2] addresses T1, GLP-1 receptor. The assay can be described thus: HitHunter cAMP assay, GLP-1 receptor. As to conditions: for EC50: CHO cells stably expressing human GLP-1 receptor, cAMP accumulation, 30 min, read-out: EC50 GLP-1R; for Emax: CHO cells, cAMP, normalized to maximum signal from GLP-1 (high) and DMSO (low), read-out: Emax GLP-1R. Background: Cyclic AMP is a second messenger, typically raised through Gs and lowered through Gi signalling.

For assay [3], the target named is T2, GIP receptor (Homo sapiens, UniProt P48546).
T2 sequence (P48546 22-466): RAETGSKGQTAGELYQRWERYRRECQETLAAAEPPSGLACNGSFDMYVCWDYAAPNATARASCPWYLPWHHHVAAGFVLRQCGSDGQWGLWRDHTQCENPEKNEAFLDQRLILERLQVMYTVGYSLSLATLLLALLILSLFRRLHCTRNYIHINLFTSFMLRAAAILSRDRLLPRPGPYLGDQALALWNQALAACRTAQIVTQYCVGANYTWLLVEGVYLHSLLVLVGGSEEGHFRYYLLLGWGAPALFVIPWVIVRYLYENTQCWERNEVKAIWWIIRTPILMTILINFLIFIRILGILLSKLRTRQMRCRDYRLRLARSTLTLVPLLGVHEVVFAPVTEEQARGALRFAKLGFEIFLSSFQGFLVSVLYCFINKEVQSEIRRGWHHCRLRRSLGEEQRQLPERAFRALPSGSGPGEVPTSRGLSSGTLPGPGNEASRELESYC
The experiment in a line: PathHunter β-arrestin assay, GIP receptor. More on the design: host or cells: PathHunter CHO-K1 GIPR β-Arrestin Cell Line. As to conditions: β-arrestin-2 recruitment, PathHunter CHO-K1 GIPR β-Arrestin Cell Line, 90 min at 37° C.; normalized to GIP; read-out: GIPR β Arrestin EC50.

Assay [4] has as its target T2, GIP receptor. The assay can be described thus: HitHunter cAMP assay, GIP receptor. As to conditions: for EC50: CHO cells stably expressing GIP receptor, cAMP accumulation, 30 min, read-out: EC50 GIP-1R; for Emax: CHO cells, cAMP, normalized to maximum signal from GIP (high) and DMSO (low), read-out: Emax GIP-1R.

T1 sequence (P43220 24-463): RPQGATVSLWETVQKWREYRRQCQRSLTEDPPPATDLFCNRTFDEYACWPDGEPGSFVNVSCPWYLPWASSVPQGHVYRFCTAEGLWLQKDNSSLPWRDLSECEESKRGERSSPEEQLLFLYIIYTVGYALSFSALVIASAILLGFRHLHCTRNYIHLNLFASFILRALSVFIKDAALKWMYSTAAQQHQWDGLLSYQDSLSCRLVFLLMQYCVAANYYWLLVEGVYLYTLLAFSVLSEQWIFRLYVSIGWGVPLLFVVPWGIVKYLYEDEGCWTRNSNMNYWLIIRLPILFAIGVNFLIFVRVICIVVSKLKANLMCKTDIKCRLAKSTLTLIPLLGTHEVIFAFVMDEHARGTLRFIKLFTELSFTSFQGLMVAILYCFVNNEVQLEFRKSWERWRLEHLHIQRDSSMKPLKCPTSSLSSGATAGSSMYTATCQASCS

In general, EC50 refers to the concentration giving half of the maximal effect. Usually Emax stands for the size of the effect at its maximum, as opposed to the concentration needed. Take `CC[C@H](C)[C@H](NC(=O)[C@H](CC(C)C)NC(=O)[C@H](Cc1c[nH]c2ccccc12)NC(=O)[C@H](CCC(N)=O)NC(=O)[C@@H](NC(=O)[C@H](Cc1ccccc1)NC(=O)[C@H](C)NC(=O)[C@H](CCCCNC(=O)COCCOCCNC(=O)COCCOCCNC(=O)CC[C@H](NC(=O)CCCCCCCCCCCCCCCCCCC(=O)O)C(=O)O)NC(=O)[C@H](CCC(N)=O)NC(=O)[C@H](C)NC(=O)[C@@H](NC(=O)[C@H](CCCCN)NC(=O)[C@H](CC(=O)O)NC(=O)[C@H](CC(C)C)NC(=O)C(C)(C)NC(=O)[C@@H](NC(=O)[C@H](CO)NC(=O)[C@H](Cc1ccc(O)cc1)NC(=O)[C@H](CC(=O)O)NC(=O)[C@H](CO)NC(=O)[C@@H](NC(=O)[C@H](Cc1ccccc1)NC(=O)[C@@H](NC(=O)CNC(=O)[C@H](CCC(=O)O)NC(=O)CCNC(=O)C(C)(C)c1cc(F)cc(OC(F)(F)F)c1)[C@@H](C)O)[C@@H](C)O)[C@@H](C)CC)[C@@H](C)CC)C(C)C)C(=O)N[C@@H](C)C(=O)NCC(=O)NCC(=O)N1CCC[C@H]1C(=O)N[C@@H](CO)C(=O)N[C@@H](CO)C(=O)NCC(=O)N[C@@H](C)C(=O)N1CCC[C@H]1C(=O)N1CCC[C@H]1C(=O)N1CCC[C@H]1C(=O)N[C@@H](CO)C(N)=O` [Compound 112] ({X52-βAla}-EGTFTSDYSI[Aib]LDKIAQK([AEEA-AEEA-γGlu-C20 diacid])AFVQWLIAGGPSSGAPPPS-NH2): the EC50 in assay [1] was over 1000 nM; in assay [2], 1 to 10 nM; in assay [3], over 1000 nM; in assay [4], 100 to 1000 nM. Also, the Emax is 115% in assay [2] and 99% in assay [4].

On to `CC[C@H](CNC(=O)C(C)(C)c1cc(F)cc(C#N)c1)C(=O)N[C@@H](CCC(=O)O)C(=O)NCC(=O)N[C@H](C(=O)N[C@@H](Cc1ccccc1)C(=O)N[C@H](C(=O)N[C@@H](CO)C(=O)N[C@@H](CC(=O)O)C(=O)N[C@@H](Cc1ccc(O)cc1)C(=O)N[C@@H](CO)C(=O)N[C@H](C(=O)NC(C)(C)C(=O)N[C@@H](CC(C)C)C(=O)N[C@@H](CC(=O)O)C(=O)N[C@@H](CCCCN)C(=O)N[C@H](C(=O)N[C@@H](C)C(=O)N[C@@H](CCC(N)=O)C(=O)N[C@@H](CCCCNC(=O)COCCOCCNC(=O)COCCOCCNC(=O)CC[C@H](NC(=O)CCCCCCCCCCCCCCCCCCC(=O)O)C(=O)O)C(=O)N[C@@H](C)C(=O)N[C@@H](Cc1ccccc1)C(=O)N[C@H](C(=O)N[C@@H](CCC(N)=O)C(=O)N[C@@H](Cc1c[nH]c2ccccc12)C(=O)N[C@@H](CC(C)C)C(=O)N[C@H](C(=O)N[C@@H](C)C(=O)NCC(=O)NCC(=O)N1CCC[C@H]1C(=O)N[C@@H](CO)C(=O)N[C@@H](CO)C(=O)NCC(=O)N[C@@H](C)C(=O)N1CCC[C@H]1C(=O)N1CCC[C@H]1C(=O)N1CCC[C@H]1C(=O)N[C@@H](CO)C(N)=O)[C@@H](C)CC)C(C)C)[C@@H](C)CC)[C@@H](C)CC)[C@@H](C)O)[C@@H](C)O` [Compound 148] ({Isobutyryl(2-(3-CN-5-F-Ph))}-[X70]EGTFTSDYSI[Aib]LDKIAQK([AEEA-AEEA-γGlu-C20 diacid])AFVQWLIAGGPSSGAPPPS-NH2), for which the EC50 in assay [1] was over 1000 nM; in assay [2], 1 to 10 nM; in assay [3] it was over 1000 nM; in assay [4] it was 10 to 100 nM. Further, the Emax in assay [2] worked out at 99%; in assay [4], 101%.

As for `CC[C@H](C)[C@H](NC(=O)[C@H](CC(C)C)NC(=O)[C@H](Cc1c[nH]c2ccccc12)NC(=O)[C@H](CCC(N)=O)NC(=O)[C@@H](NC(=O)[C@H](Cc1ccccc1)NC(=O)[C@H](C)NC(=O)[C@H](CCCCNC(=O)COCCOCCNC(=O)COCCOCCNC(=O)CC[C@H](NC(=O)CCCCCCCCCCCCCCCCCCC(=O)O)C(=O)O)NC(=O)[C@H](CCC(N)=O)NC(=O)[C@H](C)NC(=O)[C@@H](NC(=O)[C@H](CCCCN)NC(=O)[C@H](CC(=O)O)NC(=O)[C@H](CC(C)C)NC(=O)C(C)(C)NC(=O)[C@@H](NC(=O)[C@H](CO)NC(=O)[C@H](Cc1ccc(O)cc1)NC(=O)[C@H](CC(=O)O)NC(=O)[C@H](CO)NC(=O)[C@@H](NC(=O)[C@H](Cc1ccccc1)NC(=O)[C@@H](NC(=O)CNC(=O)[C@H](CCC(=O)O)NC(=O)CCNC(=O)C(C)(C)n1cc(F)cn1)[C@@H](C)O)[C@@H](C)O)[C@@H](C)CC)[C@@H](C)CC)C(C)C)C(=O)N[C@@H](C)C(=O)NCC(=O)NCC(=O)N1CCC[C@H]1C(=O)N[C@@H](CO)C(=O)N[C@@H](CO)C(=O)NCC(=O)N[C@@H](C)C(=O)N1CCC[C@H]1C(=O)N1CCC[C@H]1C(=O)N1CCC[C@H]1C(=O)N[C@@H](CO)C(N)=O` [Compound 132] ({X25-βAla}-EGTFTSDYSI[Aib]LDKIAQK([AEEA-AEEA-γGlu-C20 diacid])AFVQWLIAGGPSSGAPPPS-NH2), the EC50 in assay [1] was under 1000 nM; in assay [2] it was under 0.1 nM; in assay [3], over 1000 nM; in assay [4] it was 10 to 100 nM. The maximal response (Emax) in assay [2] is 98%; in assay [4], 104%.

With `CC[C@H](C)[C@H](NC(=O)[C@H](CC(C)C)NC(=O)[C@H](Cc1c[nH]c2ccccc12)NC(=O)[C@H](CCC(N)=O)NC(=O)[C@@H](NC(=O)[C@H](Cc1ccccc1)NC(=O)[C@H](C)NC(=O)[C@H](CCCCNC(=O)COCCOCCNC(=O)COCCOCCNC(=O)CC[C@H](NC(=O)CCCCCCCCCCCCCCCCCCC(=O)O)C(=O)O)NC(=O)[C@H](CCC(N)=O)NC(=O)[C@H](C)NC(=O)[C@@H](NC(=O)[C@H](CCCCN)NC(=O)[C@H](CC(=O)O)NC(=O)[C@H](CC(C)C)NC(=O)C(C)(C)NC(=O)[C@@H](NC(=O)[C@H](CO)NC(=O)[C@H](Cc1ccc(O)cc1)NC(=O)[C@H](CC(=O)O)NC(=O)[C@H](CO)NC(=O)[C@@H](NC(=O)[C@H](Cc1ccccc1)NC(=O)[C@@H](NC(=O)CNC(=O)[C@H](CCC(=O)O)NC(=O)[C@@H](C)CNC(=O)C1(c2ccc(Cl)cc2)CCCC1)[C@@H](C)O)[C@@H](C)O)[C@@H](C)CC)[C@@H](C)CC)C(C)C)C(=O)N[C@@H](C)C(=O)NCC(=O)NCC(=O)N1CCC[C@H]1C(=O)N[C@@H](CO)C(=O)N[C@@H](CO)C(=O)NCC(=O)N[C@@H](C)C(=O)N1CCC[C@H]1C(=O)N1CCC[C@H]1C(=O)N1CCC[C@H]1C(=O)N[C@@H](CO)C(N)=O` [Compound 181] ({cPentCO(1-(4-ClPh))}-[β2hAla(2S)]EGTFTSDYSI[Aib]LDKIAQK([AEEA-AEEA-γGlu-C20 diacid])AFVQWLIAGGPSSGAPPPS-NH2), the EC50 in assay [1] is over 1000 nM; in assay [2], 0.1 to 1 nM; in assay [3], under 1000 nM; in assay [4], 1 to 10 nM. The Emax in assay [2] is 97%; in assay [4], 106%.

In the case of `CC[C@H](C)[C@H](NC(=O)[C@H](CC(C)C)NC(=O)[C@H](Cc1c[nH]c2ccccc12)NC(=O)[C@H](CCC(N)=O)NC(=O)[C@@H](NC(=O)[C@H](Cc1ccccc1)NC(=O)[C@H](C)NC(=O)[C@H](CCCCNC(=O)COCCOCCNC(=O)COCCOCCNC(=O)CC[C@H](NC(=O)CCCCCCCCCCCCCCCCCCC(=O)O)C(=O)O)NC(=O)[C@H](CCC(N)=O)NC(=O)[C@H](C)NC(=O)[C@@H](NC(=O)[C@H](CCCCN)NC(=O)[C@H](CC(=O)O)NC(=O)[C@H](CC(C)C)NC(=O)C(C)(C)NC(=O)[C@@H](NC(=O)[C@H](CO)NC(=O)[C@H](Cc1ccc(O)cc1)NC(=O)[C@H](CC(=O)O)NC(=O)[C@H](CO)NC(=O)[C@@H](NC(=O)[C@H](Cc1ccccc1)NC(=O)[C@@H](NC(=O)CNC(=O)[C@H](CC(=O)O)NC(=O)CCNC(=O)C(C)(C)c1cc(F)cc(C#N)c1)[C@@H](C)O)[C@@H](C)O)[C@@H](C)CC)[C@@H](C)CC)C(C)C)C(=O)N[C@@H](C)C(=O)NCC(=O)NCC(=O)N1CCC[C@H]1C(=O)N[C@@H](CO)C(=O)N[C@@H](CO)C(=O)NCC(=O)N[C@@H](C)C(=O)N1CCC[C@H]1C(=O)N1CCC[C@H]1C(=O)N1CCC[C@H]1C(=O)N[C@@H](CO)C(N)=O` [Compound 108] ({Isobutyryl(2-(3-CN-5-F-Ph))-βAla}-DGTFTSDYSI[Aib]LDKIAQK([AEEA-AEEA-γGlu-C20 diacid])AFVQWLIAGGPSSGAPPPS-NH2), the EC50 in assay [1] is over 1000 nM; in assay [2] it was under 0.1 nM; in assay [3], under 1000 nM; in assay [4] it was 1 to 10 nM. Besides, the Emax in assay [2] came out at 93%; in assay [4], 95%.
